As a reminder, the IC50 is the concentration that inhibits the measured activity by half.

Bounds are passed on as bounds.

For the test, the target named is T1, Recombinant human KIF18A (1-467His-tagged) protein (Homo sapiens, UniProt Q8NI77).
T1 construct: Recombinant human KIF18A (1-467His-tagged) protein; His; made in house
T1 sequence (Q8NI77 1-467): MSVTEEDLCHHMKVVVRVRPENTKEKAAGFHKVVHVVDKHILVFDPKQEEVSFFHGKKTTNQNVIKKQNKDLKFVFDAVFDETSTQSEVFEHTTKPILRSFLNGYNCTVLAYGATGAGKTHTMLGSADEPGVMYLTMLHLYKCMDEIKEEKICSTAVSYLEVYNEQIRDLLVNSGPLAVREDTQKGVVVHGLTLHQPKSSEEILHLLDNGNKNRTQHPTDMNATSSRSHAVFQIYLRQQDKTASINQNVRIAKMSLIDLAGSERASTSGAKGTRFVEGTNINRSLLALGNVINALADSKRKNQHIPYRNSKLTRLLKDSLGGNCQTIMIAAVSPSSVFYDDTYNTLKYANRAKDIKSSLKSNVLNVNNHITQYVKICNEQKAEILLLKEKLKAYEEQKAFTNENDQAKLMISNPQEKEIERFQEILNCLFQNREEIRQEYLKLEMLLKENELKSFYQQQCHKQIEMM
T1 sequence (P02550 whole entry partner): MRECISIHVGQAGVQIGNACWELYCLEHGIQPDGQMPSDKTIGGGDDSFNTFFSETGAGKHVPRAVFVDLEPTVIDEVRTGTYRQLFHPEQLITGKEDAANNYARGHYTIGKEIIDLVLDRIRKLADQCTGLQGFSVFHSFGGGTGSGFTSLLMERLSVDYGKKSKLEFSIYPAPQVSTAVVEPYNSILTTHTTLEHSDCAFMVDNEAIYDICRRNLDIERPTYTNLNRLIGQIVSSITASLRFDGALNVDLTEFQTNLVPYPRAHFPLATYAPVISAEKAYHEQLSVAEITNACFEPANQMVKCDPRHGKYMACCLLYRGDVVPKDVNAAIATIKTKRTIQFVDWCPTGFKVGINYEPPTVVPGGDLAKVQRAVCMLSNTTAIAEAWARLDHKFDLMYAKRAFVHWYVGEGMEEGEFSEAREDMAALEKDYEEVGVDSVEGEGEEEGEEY
T1 sequence (P02554 whole entry partner): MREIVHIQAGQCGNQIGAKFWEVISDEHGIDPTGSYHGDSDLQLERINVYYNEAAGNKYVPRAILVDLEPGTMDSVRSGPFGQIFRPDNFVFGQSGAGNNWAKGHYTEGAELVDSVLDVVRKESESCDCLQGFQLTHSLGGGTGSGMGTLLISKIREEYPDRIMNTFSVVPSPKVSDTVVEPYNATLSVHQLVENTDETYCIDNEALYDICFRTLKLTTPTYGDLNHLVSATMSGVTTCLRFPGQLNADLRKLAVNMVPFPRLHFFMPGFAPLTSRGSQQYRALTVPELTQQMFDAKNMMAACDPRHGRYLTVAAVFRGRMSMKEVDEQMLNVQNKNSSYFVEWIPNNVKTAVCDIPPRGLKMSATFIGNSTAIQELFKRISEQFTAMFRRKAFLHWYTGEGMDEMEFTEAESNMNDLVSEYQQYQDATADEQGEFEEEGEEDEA
Put plainly: KIF18A enzyme assay (microtubule-stimulated ATPase activity, ADP-Glo). The class given is biochemical. To be noted: 30 nM KIF18A, 75 μM ATP, 30 μg/mL pig microtubules; read-out: Inhibitory activity against KIF18A IC50. The essentials:
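Buffer 15 mM Tris pH 7.5, 10 mM MgCl2, 0.01% Pluronic F-68, 1 μM paclitaxel, 30 μg/mL pig microtubules; reactions at room temperature. IC50 from inhibition relative to DMSO.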
As to `CC(C)(CO)Nc1nc(C(=O)Nc2ccc(S(=O)(=O)NCCO)cc2N2CCC3(CC2)CC3)ccc1OCF` [Compound 571], the IC50 was in the range of 100 to 500 nM.
Turning to `O=C(Nc1ccc(S(=O)(=O)NCCO)cc1N1CCC2(CC1)CC2)c1ccc(OCF)c(N2CCOCC2)n1` [Compound 572], the IC50 lay in the range of 100 to 500 nM.
In the case of `C[C@@H](CO)NS(=O)(=O)c1ccc(NC(=O)c2ccc(OCF)c(N3CCC(F)(F)CC3)n2)c(N2CCC3(CC2)CC3)c1` [Compound 573], the IC50 lay in the range of 100 to 500 nM.
For `C[C@H](CO)NS(=O)(=O)c1ccc(NC(=O)c2ccc(OCF)c(N3CCC(F)(F)CC3)n2)c(N2CCC3(CC2)CC3)c1` [Compound 574] the value was 100 to 500 nM; for `C[C@@H]1CN(c2nc(C(=O)Nc3ccc(S(=O)(=O)N[C@@H](C)CO)cc3N3CCC4(CC3)CC4)ccc2OCF)CCO1` [Compound 575], 100 to 500 nM; for `C[C@H](CO)NS(=O)(=O)c1ccc(NC(=O)c2ccc(OCF)c(N3CCO[C@H](C)C3)n2)c(N2CCC3(CC2)CC3)c1` [Compound 576], 100 to 500 nM.
To `CSc1ccc(NC(=O)c2ccc(NS(=O)(=O)CCO)cc2N2CCC3(CC2)CC3)cc1N1CCC(F)(F)CC1` [Compound 577] belongs at most 100 nM; to `CSc1ccc(NC(=O)c2ccc(NS(=O)(=O)CCO)cc2N2CCC3(CC2)CC3)cc1N1CCO[C@H](C)C1` [Compound 578], at most 100 nM.
As to `CSc1ccc(NC(=O)c2ccc(NS(=O)(=O)CCO)cc2N2CCC3(CC2)CC3)cc1N1CCO[C@@H](C)C1` [Compound 579], the IC50 is at most 100 nM.
As for `CSc1ccc(NC(=O)c2ccc(NS(=O)(=O)CCO)cc2N2CCC3(CC2)CC3)cc1N1CC(F)(F)C1` [Compound 580], the IC50 was at most 100 nM.
Regarding `CSc1ccc(NC(=O)c2ccc(NS(=O)(=O)CCO)cc2N2CCC3(CC2)CC3)cc1OCCC(F)(F)F` [Compound 581], the IC50 was at most 100 nM.
Take `CSc1ccc(NC(=O)c2ccc(NS(=O)(=O)CCO)cc2N2CCC3(CC2)CC3)cc1N1CCC2(CC2)C1` [Compound 582]: the IC50 is at most 100 nM.
Take `CSc1ccc(NC(=O)c2ccc(NS(=O)(=O)CCO)cc2N2CCC3(CC2)CC3)cc1OC1CCC1` [Compound 583]: the IC50 was at most 100 nM.
To `CSc1ccc(NC(=O)c2ccc(NS(=O)(=O)CCO)cc2N2CCC3(CC2)CC3)cc1N1CCC(C)(F)C1` (stereo not drawn) [Compound 584] belongs at most 100 nM; to `CSc1ccc(NC(=O)c2ccc(NS(=O)(=O)CCO)cc2N2CCC3(CC2)CC3)cc1N1CCC(F)CC1` [Compound 585], at most 100 nM.
For `CSc1ccc(NC(=O)c2ccc(NS(=O)(=O)CCO)cc2N2CCC3(CC2)CC3)cc1N1CC2CC2C1` (stereo not drawn) [Compound 586] the value was at most 100 nM; for `CSc1ccc(NC(=O)c2ccc(NS(=O)(=O)CCO)cc2N2CCC3(CC2)CC3)cc1NC(C)(C)CO` [Compound 587], at most 100 nM; for `CSc1ccc(NC(=O)c2ccc(NS(=O)(=O)CCO)cc2N2CCC3(CC2)CC3)cc1N1CCOCC1` [Compound 588], at most 100 nM.
For the compound `CSc1ccc(NC(=O)c2ccc(NS(=O)(=O)[C@@H](C)CO)cc2N2CCC3(CC2)CC3)cc1N1CCC(F)(F)CC1` [Compound 589], the IC50 was at most 100 nM.
To `CSc1ccc(NC(=O)c2ccc(NS(=O)(=O)[C@H](C)CO)cc2N2CCC3(CC2)CC3)cc1N1CCC(F)(F)CC1` [Compound 590] belongs at most 100 nM; to `CSc1ccc(NC(=O)c2ccc(NS(=O)(=O)[C@@H](C)CO)cc2N2CCC3(CC2)CC3)cc1N1CCO[C@H](C)C1` [Compound 591], at most 100 nM; to `CSc1ccc(NC(=O)c2ccc(NS(=O)(=O)[C@H](C)CO)cc2N2CCC3(CC2)CC3)cc1N1CCO[C@H](C)C1` [Compound 592], at most 100 nM.
With `CSc1ccc(NC(=O)c2ccc(NS(=O)(=O)CCO)cc2N2CCC3(CC2)CC3)nc1N1CCO[C@H](C)C1` [Compound 594], the IC50 is at most 100 nM.
Take `CSc1ccc(NC(=O)c2ccc(NS(=O)(=O)CCO)cc2N2CCC3(CC2)CC3)nc1N1CCO[C@@H](C)C1` [Compound 595]: the IC50 was at most 100 nM.

For the origin of these results see US20260158017A1, “KIF18A INHIBITOR” (WIGEN BIOMEDICINE TECHNOLOGY (SHANGHAI) CO., LTD., priority 2021, published 2026).
